Patent US7572923B2, “Indirubin derivatives having anticancer property against human cancer cell line” (Anygen Co., Ltd., priority 2004, dated 2009)

Legend:
[1] = system: human lung cancer cell line (A549); test: Inhibition of cancer cell line proliferation, A549; type: cell-based; details: 96 h, 3˜4 days incubation, absorbance at 515 nm
Method: (§1) For measuring the proliferation inhibition by indirubin compound, the method disclosed in K. Likhitwitayawuid et al. Journal. Nat. Prod. […] Followings are simple description of this method. The cancer cell line is diluted into 5×10^4 cfu/ml. Then, various concentrations of test compounds are added to 96 well microtiter plate containing diluted cell line. After incubating test plate for 3˜4 days at 37° C., the test plate is dried and Tris-base is added. Then, using ELISA plate detector, the absorbance at 515 nm is measured. IC50 is measured by non-linear regression method.

[2] = system: human stomach cancer cell line (SNU-638); test: Inhibition of cancer cell line proliferation, SNU-638; type: cell-based; details: 96 h, 3˜4 days incubation, absorbance at 515 nm
Method: as §1

[3] = system: human colon cancer cell line (Col2); test: Inhibition of cancer cell line proliferation, Col2; type: cell-based; details: 96 h, 3˜4 days incubation, absorbance at 515 nm
Method: as §1

[4] = system: human abdominal cavity cancer cell line (HT 1080); test: Inhibition of cancer cell line proliferation, HT 1080; type: cell-based; details: HT-1080, 96 h, HT108, 3˜4 days incubation, absorbance at 515 nm
Method: as §1

[5] = system: leukemia cell line (HL-60); test: Differentiation inducing effect, NBT reduction method; type: cell-based, human; details: 3 days
Method: For measuring the differentiation inducing effect to acute bone merrow leukemia cell line (HL-60) by indirubin AGM compound, NBT (nitroblue tetrazolium) reduction reaction method is employed. The leukemia cell line is diluted into 2×10^5 cfu/ml. […] Incubated cells are washed with phosphate buffered saline (PBS). Then, they are further incubated in PBS solution containing 0.1% NBT and 200 ng/ml of PMA (phorbol 12-myristate 13-acetate) for 30 minutes at 37° C. Incubated cells are centrifuged and collected cells are washed with PBS solution. Using cell number counter, differentiated cells forming nitroblue formazan among total cells are counted.

[6] = system: human leukemia cell line (HL-60); test: Differentiation with low concentration 1,25-(OH)2D3 or ATRA, NBT reduction method; type: cell-based; details: for % of Differentiation, 1,25-(OH)2D3: 1 μM compound with 5 nM of 1,25-(OH)2D3; for % of Differentiation, all-trans RA: 1 μM compound with 50 nM of ATRA
Method: For measuring the differentiation inducing effect to acute bone merrow leukemia cell line (HL-60) by indirubin AGM compound, NBT (nitroblue tetrazolium) reduction reaction method is employed. The leukemia cell line is diluted into 2×10^5 cfu/ml. After treating 20 μM and 1 μM concentrations of test compounds, test plate is incubated for 3 days at 37° C. in 5% CO2 incubator. Incubated cells are washed with phosphate buffered saline (PBS). Then, they are further incubated in PBS solution containing 0.1% NBT and 200 ng/ml of PMA (phorbol 12-myristate 13-acetate) for 30 minutes at 37° C. Incubated cells are centrifuged and collected cells are washed with PBS solution. Using cell number counter, differentiated cells forming nitroblue formazan among total cells are counted.
Next, we test if AGM compound of present invention can synergically induce the differentiation of acute bone merrow leukemia cell line when it is treated with low concentration of 1,25-dihydroxyvitamin D3[1,25-(OH)2D3] or all-trans retinoic acid (ATRA) known as differentiation inducing agent. […] […] As a positive control, conventional differentiation inducing agent is used.

[7] = system: human leukemia cell line (HL-60); test: Inhibition of cancer cell line proliferation, HL-60; type: cell-based; details: HL-60, 96 h, HL60, 3˜4 days incubation, absorbance at 515 nm
Method: as §1

[8] = system: human cell line (HT 1080); test: Inhibition of cancer cell line proliferation, HT 1080; type: cell-based; details: HT-1080, 96 h, read-out: IC50 HT108
Method: as §1

Row | SMILES | IC50 [1] [µM] | IC50 [2] [µM] | IC50 [3] [µM] | IC50 [4] [µM] | % of Differentiation ([5]; 1 μM compound) [%] | % of Differentiation ([5]; 20 μM compound) [%] | % of Differentiation, 1,25-(OH)2D3 [6] [%] | % of Differentiation, all-trans RA [6] [%] | IC50 [7] [µM] | IC50 [8] [µM]
1 | O=C1Nc2ccccc2C1=C1Nc2ccccc2C1=O [AGM001, 1H,1′H-[2,3′] biindolylidene-3,2′-dione] | 31 | > 100 | > 100 | 42.2 | 7.76 ± 3.42 | 10.00 ± 0.27 | 28.36 ± 0.15 | 39.61 ± 1.25 |  | 
2 | O=C1Nc2ccccc2C1=C1Nc2ccccc2C1=NO [AGM002, 1H,1′H-[2,3′] biindolylidene-3,2′-dione 3-oxime] | 62 | > 100 | > 100 | 4.8 | 11.12 ± 0.31 | 6.78 ± 0.40 | 24.52 ± 2.67 | 37.78 ± 1.06 |  | 
3 | O=C1Nc2ccc(OC(F)(F)F)cc2C1=C1Nc2ccccc2C1=O [AGM003] |  |  |  |  | 6.27 ± 1.76 | 10.36 ± 0.29 | 22.04 ± 0.38 | 41.01 ± 1.26 |  | 
4 | O=C1Nc2ccc(OC(F)(F)F)cc2C1=C1Nc2ccccc2C1=NO [AGM004] |  |  |  |  | 22.81 ± 2.38 |  | 26.36 ± 3.05 | 28.68 ± 0.23 |  | 
5 | CC(=O)N1C(=C2C(=O)Nc3ccccc32)C(=O)c2ccccc21 [AGM006, 1-acetyl-1H,1′H-[2,3′] biindolylidene-3,2′-dione] | > 100 | > 100 | > 100 | > 100 | 9.99 ± 1.47 | 10.49 ± 0.25 | 19.60 ± 0.56 | 42.81 ± 1.05 | > 100 | 
6 | O=C1Nc2ccc([N+](=O)[O-])cc2C1=C1Nc2ccccc2C1=O [AGM009, 5′-nitro-1H,1′H-[2,3′] biindolylidene-3,2′-dione] | > 100 | > 100 | > 100 | > 100 | 19.94 ± 2.02 | 29.26 ± 1.59 | 48.51 ± 3.49 | 59.32 ± 1.54 | > 100 | 
7 | O=C1Nc2ccc(F)cc2C1=C1Nc2ccccc2C1=O [AGM010, 5′-fluoro-1H,1′H-[2,3′] biindolylidene-3,2′-dione] | 96.8 | 40.3 | > 100 |  | 7.53 ± 1.02 | 13.01 ± 0.14 | 78.44 ± 6.88 | 75.08 ± 6.80 | > 100 | > 100
8 | Cc1ccc2c(c1)C(=C1Nc3ccccc3C1=NO)C(=O)N2 [AGM013, 5′-methyl-1H,1′H-[2,3′] biindolylidene-3,2′-dione 3-oxime] | 20.4 | 17.6 | > 100 | 36.7 | 26.22 ± 2.04 |  | 35.49 ± 5.45 | 70.54 ± 2.17 | 65.4 | 
9 | O=C1Nc2ccc(I)cc2C1=C1Nc2ccccc2C1=NO [AGM015, 5′-iodo-1H,1′H-[2,3′] biindolylidene-3,2′-dione 3-oxime] | > 100 | > 100 | > 100 | > 100 | 30.50 ± 4.97 |  | 33.27 ± 0.75 | 67.41 ± 1.36 | > 100 | 
10 | Cc1cc(C)c2c(c1)C(=C1Nc3ccccc3C1=NO)C(=O)N2 [AGM016, 5′,7′-dimethyl-1H,1′H-[2,3′] biindolylidene-3,2′-dione 3-oxime] | > 100 | 90.6 | > 100 | > 100 | 3.07 ± 1.69 | 10.35 ± 0.62 | 27.24 ± 1.32 | 33.99 ± 0.47 | > 100 | 
11 | Cc1cc(Cl)cc2c1NC(=O)C2=C1Nc2ccccc2C1=NO [AGM017, 5′-chloro-7′-methyl-1H,1′H-[2,3′] biindolylidene-3,2′-dione 3-oxime] | > 100 | > 100 | > 100 |  | 8.37 ± 0.45 | 2.62 ± 0.23 | 22.10 ± 0.90 | 43.17 ± 1.56 | > 100 | > 100
12 | O=C1Nc2ccccc2C1=C1Nc2ccc(Br)cc2C1=NO [AGM018, 5-bromo-1H,1′H-[2,3′] biindolylidene-3,2′-dione 3-oxime] | 38.6 | 32.9 | 10.5 | 73.6 | 8.69 ± 4.95 |  | 36.52 ± 1.27 | 23.13 ± 0.71 | 25 | 
13 | O=C1Nc2ccc(S(=O)(=O)[O-])cc2C1=C1Nc2ccccc2C1=O.[Na+] [AGM019, 3,2′-dioxo-1,3,1′,2′-tetrahydro-[2,3′] biindolylidene-5′-sodium sulfonate] |  |  |  |  | 9.36 ± 0.13 | 12.44 ± 1.66 | 27.66 ± 1.28 | 51.49 ± 0.13 |  | 
14 | O=C1Nc2ccc(S(=O)(=O)[O-])cc2C1=C1Nc2ccccc2C1=NO.[Na+] [AGM020, 3-hydroxyimino-2′-oxo-1,3,1′,2′-tetrahydro-[2,3′] biindolylidene-5′-sodium sulfonate] |  |  |  |  | 11.34 ± 2.32 | 23.86 ± 1.31 | 23.34 ± 0.65 | 34.50 ± 2.91 |  | 
15 | O=C1Nc2ccccc2C1=C1Nc2ccc(Br)cc2C1=O [AGM021, 5-bromo-1H,1′H-[2,3′] biindolylidene-3,2′-dione] | > 100 | > 100 | > 100 | > 100 | 11.63 ± 3.48 | 9.64 ± 0.51 | 24.64 ± 0.65 | 28.23 ± 0.02 | > 100 | 
16 | O=C1Nc2ccc([N+](=O)[O-])cc2C1=C1Nc2ccc(Br)cc2C1=O [AGM022] |  |  |  |  | 18.35 ± 0.02 | 22.89 ± 0.51 | 48.28 ± 0.36 | 51.20 ± 3.70 |  | 
17 | Cc1ccc2c(c1)C(=C1Nc3ccccc3C1=O)C(=O)N2 [AGM024, 5′-methyl-1H,1′H-[2,3′] biindolylidene-3,2′-dione] | > 100 | > 100 | > 100 |  | 24.89 ± 6.06 | 14.38 ± 0.42 | 41.66 ± 0.40 | 51.01 ± 0.88 | > 100 | > 100
18 | Nc1ccc2c(c1)C(=C1Nc3ccccc3C1=NO)C(=O)N2 [AGM031, 5′-amino-1H,1′H-[2,3′] biindolylidene-3,2′-dione-3-oxime] | 9.13 | 10 | 24.6 |  |  |  |  |  | 13 | 5.07
19 | O=C1Nc2ccccc2/C1=C1/Nc2ccccc2C1=O [Indirubin] |  |  |  |  | 15.28 ± 1.12 | 1.18 ± 0.18 | 26.39 ± 0.98 | 44.87 ± 2.54 |  | 
